Values quoted from earlier work as cited in patent publication US20260007632A1, “FORMULATIONS OF DOCETAXEL” (Zhuhai Beihai Biotech Co., Ltd., priority 2020, published 2026).

Tests used:
microtubule = details: relative to paclitaxel

| Compound | volume of ethanol required to dissolve 1 g (at 25° C.) [mL] | volume of water required to dissolve 1 g (at 25° C.) [mL] | potency in inhibiting microtubule depolymerization (microtubule) | solubility in water |
| --- | --- | --- | --- | --- |
| CC(=O)Oc1ccccc1C(=O)O [aspirin] | 5 | 300 | – | – |
| CC(=O)O[C@@]12CO[C@@H]1C[C@H](O)[C@@]1(C)C(=O)[C@H](O)C3=C(C)[C@@H](OC(=O)[C@H](O)[C@@H](NC(=O)OC(C)(C)C)c4ccccc4)C[C@@](O)([C@@H](OC(=O)c4ccccc4)[C@H]21)C3(C)C [docetaxel] | – | – | about twice as potent as paclitaxel | very poor water solubility |
